Experimental data reported in EP0101412A2, “Anthelmintics” (CIBA-GEIGY AG, priority 1982, dated 1984).
Values joined by “and” are separate entries in the source; they are usually repeats but may differ in a detail not shown here. Equal entries are not always repeated.

Test system: Fasciola hepatica
Test: Trial in sheep artificially infected with Fasciola hepatica (faecal egg counts and adult helminth counts at necropsy)
Format: in vivo, Schafe
Details: for adulte Helminthen Mittelwert: group mean of 4 sheep; for EPG 12. Woche / EPG 13. Woche / adulte Helminthen Anzahl: sheep, individual animals; for EPG 12. Woche: 12th week after infection; for EPG 13. Woche: 13th week after infection; for adulte Helminthen Anzahl: at necropsy; for adulte Helminthen Reduktion in %: versus untreated control animals
Description: Versuch an mit Fasciola hepatica und Nematoden […] von Fasciola hepatica infiziert. Zu diesem Zweck […] in einer wässrigen 0,4%igen Suspension von Carboxymethylcellulose direkt in den Rumen […] oral mit je 10.000 bzw. 5.000 […] 3) von […] Trichostrongylus colubriformis und Haemonchus contortus infiziert. Für die Medikierung wurden die Versuchstiere in gleichgrossen Gruppen und in […], in denen der Anteil von Wirkstoff der Formel 1 2-5 mg/kg und der Anteil Wirkstoff der Formel II 3-7 mg/kg betrugen, an die […] in Gehegeboxen unter Normalbedingungen gehalten. Zur […] in bestimmten Zeitinvervallen nach Infizierung und Medikierung die mit dem Kot […] und die […]. Die erhaltenen Resultate […] und der Kontrollgruppen wurden für die Auswertung verglichen. Indikation: Fasciola hepatica […]): 19

Compound	adulte Helminthen Mittelwert (I 2,5 mg/kg)	EPG 12. Woche (I 2,5 mg/kg)	EPG 13. Woche (I 2,5 mg/kg)	adulte Helminthen Anzahl (I 2,5 mg/kg)	adulte Helminthen Reduktion in % (I 2,5 mg/kg)	adulte Helminthen Mittelwert (II 6,75 mg/kg)	EPG 12. Woche (II 6,75 mg/kg)	EPG 13. Woche (II 6,75 mg/kg)	adulte Helminthen Anzahl (II 6,75 mg/kg)	adulte Helminthen Reduktion in % (II 6,75 mg/kg)
CSc1nc2cc(Cl)c(Oc3cccc(Cl)c3Cl)cc2[nH]1 [Substanz I, 5-Chlor-6-(2',3'-dichlorphenoxy)-2-methylthiobenzimidazol]	48,5	210 Eier pro gr Faeces and 160 Eier pro gr Faeces and 120 Eier pro gr Faeces and 20 Eier pro gr Faeces	130 Eier pro gr Faeces and 160 Eier pro gr Faeces and 180 Eier pro gr Faeces and 15 Eier pro gr Faeces	58 and 65 and 51 and 20	52,7%					
c1ccc([C@H]2CN3CCSC3=N2)cc1 [Substanz II, L-(-)-2,3,5,6-Tetrahydro-6-phenylimidazo[2,1-b]-thiazol]						92,8	225 Eier pro gr Faeces and 990 Eier pro gr Faeces and 160 Eier pro gr Faeces and 226 Eier pro gr Faeces	810 Eier pro gr Faeces and 1140 Eier pro gr Faeces and 250 Eier pro gr Faeces (2×)	103 and 108 and 71 and 89	9,6%
